Publication PMC11012124, “Synthesis of Novel Triazine-Based Chalcones and 8,9-dihydro-7H-pyrimido[4,5-b][1,4]diazepines as Potential Leads in the Search of Anticancer, Antibacterial and Antifungal Agents” (International Journal of Molecular Sciences, 2024)

Key:
SK-MEL-28 = test: cells; conditions: Homo sapiens, SK-MEL-28, 48 h
UO-31 = test: cells; conditions: Homo sapiens, UO-31, 48 h, read-out: LC50
SW-620 = test: cells; conditions: Homo sapiens, SW-620, 48 h
ACHN = test: cells; conditions: Homo sapiens, 48 h
UACC-62 = test: cells; conditions: Homo sapiens, UACC-62, 48 h
HOP-62 = test: cells; conditions: Homo sapiens, HOP-62, 48 h
HCT-15 = test: cells; conditions: Homo sapiens, HCT-15, 48 h
BT-549 = test: cells; conditions: Homo sapiens, BT-549, 48 h
U251 = test: cells; conditions: Homo sapiens, U-251, 48 h
MALME-3M = test: cells; conditions: Homo sapiens, 48 h
CAKI-1 = test: cells; conditions: Homo sapiens, CAKI-1, 48 h
M14 = test: cells; conditions: Homo sapiens, M14, 48 h
SF-539 = test: cells; conditions: Homo sapiens, SF-539, 48 h
MDA-MB-468 = test: cells; conditions: Homo sapiens, MDA-MB-468, 48 h
SNB-75 = test: cells; conditions: Homo sapiens, SNB-75, 48 h
HCT-116 = test: cells; conditions: Homo sapiens, HCT-116, 48 h
60 cancer cell lines = test: NCI-60 one-dose screen (10 μM); assay type: cell-based; conditions: Homo sapiens; one dose of 10 μM, mean over 60 cancer cell lines; read-out: Mean Growth Percent (MGP)
From the text: Additionally, the mean of the growth percentages (MGP) of each compound against all the 60 cancer cell lines is also reported, which is used as one of the selection criteria to continue with tests at five concentration doses.

HCC-2998 = test: cells; conditions: Homo sapiens, HCC 2998, 48 h
SNB-19 = test: cells; conditions: Homo sapiens, SNB-19, 48 h
HS 578T = test: cells; conditions: Homo sapiens, 48 h
MDA-MB-231/ATCC = test: cells; conditions: Homo sapiens, MDA-MB-231, 48 h
MOLT-4 = test: cells; conditions: Homo sapiens, MOLT-4, 48 h
NCI-H322M = test: cells; conditions: Homo sapiens, 48 h
RPMI-8226 = test: cells; conditions: Homo sapiens, RPMI-8226, 48 h
OVCAR-8 = test: cells; conditions: Homo sapiens, OVCAR-8, 48 h
COLO 205 = test: cells; conditions: Homo sapiens, COLO 205, 48 h
EKVX = test: cells; conditions: Homo sapiens, 48 h
HT29 = test: cells; conditions: Homo sapiens, HT-29, 48 h
PC-3 = test: cells; conditions: Homo sapiens, PC-3, 48 h
SK-OV-3 = test: cells; conditions: Homo sapiens, SK-OV-3, 48 h
A549/ATCC = test: cells; conditions: Homo sapiens, A549, 48 h
KM12 = test: cells; conditions: Homo sapiens, KM12, 48 h
DU-145 = test: cells; conditions: Homo sapiens, DU-145, 48 h
RXF 393 = test: cells; conditions: Homo sapiens, RXF 393, 48 h
NCI-H522 = test: cells; conditions: Homo sapiens, NCI-H522, 48 h
T-47D = test: cells; conditions: Homo sapiens, T47D, 48 h

COc1cc(C2CC(c3ccc(Cl)cc3)=Nc3c(N)nc(N)nc3N2)ccc1Oc1nc(Nc2ccc(F)cc2)nc(N(C)C)n1 (stereo not shown) [29e]
GI50 (SK-MEL-28): > 100 µM | CC50 (SK-MEL-28; read-out: LC50): > 100 µM | CC50 (UO-31): > 100 µM | GI50 (SW-620): > 100 µM | CC50 (SW-620; read-out: LC50): > 100 µM | GI50 (ACHN): > 100 µM | CC50 (ACHN; read-out: LC50): > 100 µM | GI50 (UACC-62): > 100 µM | CC50 (UACC-62; read-out: LC50): > 100 µM | GI50 (HOP-62): > 100 µM | CC50 (HOP-62; read-out: LC50): > 100 µM | GI50 (HCT-15): 76.6 µM | CC50 (HCT-15; read-out: LC50): > 100 µM | GI50 (BT-549): 35.5 µM | CC50 (BT-549; read-out: LC50): > 100 µM | GI50 (U251; U251, 48 h): > 100 µM | CC50 (U251; read-out: LC50): > 100 µM | GI50 (MALME-3M): > 100 µM | CC50 (MALME-3M; read-out: LC50): > 100 µM | GI50 (CAKI-1): 3.38 µM | CC50 (CAKI-1; read-out: LC50): > 100 µM | GI50 (M14): > 100 µM | CC50 (M14; read-out: LC50): > 100 µM | GI50 (SF-539): > 100 µM | CC50 (SF-539; read-out: LC50, SF-539, 48 h): > 100 µM | GI50 (MDA-MB-468): 17.8 µM | CC50 (MDA-MB-468; read-out: LC50): > 100 µM | GI50 (SNB-75): 3.24 µM | CC50 (SNB-75; read-out: LC50): > 100 µM | GI50 (HCT-116): 12.5 µM | CC50 (HCT-116; read-out: LC50): > 100 µM | activity at 10 µM (60 cancer cell lines): 40.9% | GI50 (HCC-2998): 45.3 µM | CC50 (HCC-2998; read-out: LC50): > 100 µM | GI50 (SNB-19): > 100 µM | CC50 (SNB-19; read-out: LC50): > 100 µM | GI50 (HS 578T): 84.8 µM | CC50 (HS 578T; read-out: LC50): > 100 µM | GI50 (MDA-MB-231/ATCC): 6.73 µM | CC50 (MDA-MB-231/ATCC; read-out: LC50): > 100 µM | GI50 (MOLT-4): 8.54 µM | CC50 (MOLT-4; read-out: LC50): > 100 µM | GI50 (NCI-H322M): > 100 µM | CC50 (NCI-H322M; read-out: LC50): > 100 µM | GI50 (RPMI-8226): 26.4 µM | CC50 (RPMI-8226; read-out: LC50): > 100 µM | GI50 (OVCAR-8): > 100 µM | CC50 (OVCAR-8; read-out: LC50): > 100 µM | GI50 (COLO 205): > 100 µM | CC50 (COLO 205; read-out: LC50): > 100 µM | GI50 (EKVX): > 100 µM | CC50 (EKVX; read-out: LC50): > 100 µM | GI50 (HT29): 29.4 µM | CC50 (HT29; read-out: LC50): > 100 µM | GI50 (PC-3): 6.16 µM | CC50 (PC-3; read-out: LC50): > 100 µM | GI50 (SK-OV-3): > 100 µM | CC50 (SK-OV-3; read-out: LC50): > 100 µM | GI50 (A549/ATCC): > 100 µM | CC50 (A549/ATCC; read-out: LC50): > 100 µM | GI50 (KM12): 40.1 µM | CC50 (KM12; read-out: LC50): > 100 µM | GI50 (DU-145): > 100 µM | CC50 (DU-145; read-out: LC50): > 100 µM | GI50 (RXF 393): 2.46 µM | CC50 (RXF 393; read-out: LC50): > 100 µM | GI50 (NCI-H522): > 100 µM | CC50 (NCI-H522; read-out: LC50): > 100 µM | GI50 (T-47D): > 100 µM | CC50 (T-47D; read-out: LC50): > 100 µM
